Experimental data published in patent US5498602A, “Oligosaccharide aromatic glycoside and sulfate thereof” (priority 1991, dated 1996).

Experiments:
MT-4 cells = experiment: Cytotoxicity with respect to non-infected MT-4 cells (MTT method); format: cell-based; details: 5 days; for CC50 (50% cytotoxic concentration): 37° C., MTT method
Experimental: (§1) Evaluation method: Test substances having various concentrations were placed in a 96-well microtiter plate along with HIV-infected MT-4 cells (2.5×10^4 /well, MOI: 0.01) immediately after the infection thereof. In order to ascertain the cytotoxicity of the test substance with respect to the MT-4 cells, non-infected cells were cultured in an identical manner along with the test substances of various concentrations. After culturing for 5 days at a temperature of 37° C. in a CO2 incubator, the number of living cells was determined using the MTT method. The antiviral activity is shown in terms of the concentration which prevented 50% of the cytopathogenic effects of the HIV virus (EC50 : 50% effective concentration) and the cytotoxicity is shown in terms of the concentration at which the cytotoxicity of the test substance reaches 50% (CC50 : 50% cytotoxic concentration).Furthermore, the selectivity index (S.I.) is calculated as CC50 /EC50.
(§2) (Reference: Pauwels, et al., J. Viral Methods, 20 (1988) 309-321). Using this method, the compounds of Examples 30-43 were tested for anti-HIV activity. The compounds shown in Table 2 (Examples 35~38) are produced by means of novel sulfation methods. For the purposes of comparison, the conventional anti-AIDS agents AZT (3'-azido-2',3'-dideoxythymidine) and dextran sulfate were also tested, and the results thereof are appended as comparative data.

HIV = experiment: Anti-AIDS (HIV) activity in HIV-infected MT-4 cells (MTT method); format: cell-based; details: for EC50 (50% effective concentration, prevention of 50% of cytopathogenic effects of HIV): 37° C., MTT method
Experimental: as §1, §2

[1] = HIV-infected MT-4 cells, MOI 0.01, 5 days

sulfated p-heptyloxyphenyl β-D-glucopyranosyl-(1→3)-{β-D-glucopyranosyl-(1→3)}3 -β-D-glucopyranoside [Example 32]
CC50 (50% cytotoxic concentration) (MT-4 cells): > 1000 µg/mL
EC50 (50% effective concentration, prevention of 50% of cytopathogenic effects of HIV) (HIV; [1]): 0.72 µg/mL

p-octylphenyl β-D-glucopyranosyl-(1→3)-{β-D-glucopyranosyl (1→3)}3 -β-D-glucopyranoside sulfate [Example 30]
CC50 (50% cytotoxic concentration) (MT-4 cells): > 1000 µg/mL
EC50 (50% effective concentration, prevention of 50% of cytopathogenic effects of HIV) (HIV; [1]): 0.62 µg/mL

p-heptyloxyphenyl β-D-glucopyranosyl-(1→3)-{β-D-glucopyranosyl-(1→3)}3 -β-D-glucopyranoside sulfate [Example 33]
CC50 (50% cytotoxic concentration) (MT-4 cells): > 1000 µg/mL
EC50 (50% effective concentration, prevention of 50% of cytopathogenic effects of HIV) (HIV; [1]): 0.77 µg/mL

dextran sulfate [reference compound]
CC50 (50% cytotoxic concentration) (MT-4 cells): > 1000 µg/mL
EC50 (50% effective concentration, prevention of 50% of cytopathogenic effects of HIV) (HIV; [1]): 0.50 µg/mL

p-(1,1,3,3-tetramethylbutyl)phenyl β-D-glucopyranosyl-(1→3)-{β-D-glucopyranosyl-(1→3)}3 -β-D-glucopyranoside sulfate [Example 35]
CC50 (50% cytotoxic concentration) (MT-4 cells): > 1000 µg/mL
EC50 (50% effective concentration, prevention of 50% of cytopathogenic effects of HIV) (HIV; [1]): 0.038 µg/mL

p-pentylphenyl β-D-glucopyranosyl-(1→3)-{β-D-glucopyranosyl (1→3)}3 -β-D-glucopyranoside sulfate [Example 31]
CC50 (50% cytotoxic concentration) (MT-4 cells): > 1000 µg/mL
EC50 (50% effective concentration, prevention of 50% of cytopathogenic effects of HIV) (HIV; [1]): 0.75 µg/mL

p-octylphenyl β-D-glucopyranosyl-(1→3)-{β-D-glucopyranosyl (1→3)}3 -β-D-glucopyranoside sulfate [Example 37]
CC50 (50% cytotoxic concentration) (MT-4 cells): > 1000 µg/mL
EC50 (50% effective concentration, prevention of 50% of cytopathogenic effects of HIV) (HIV; [1]): 0.080 µg/mL

heptyloxyphenyl β-D-galactopyranosyl-(1→4)-{β-D-galactopyranosyl-(1→4)}2 -β-D-glucopyranoside sulfate [Example 42]
CC50 (50% cytotoxic concentration) (MT-4 cells): > 1000 µg/mL
EC50 (50% effective concentration, prevention of 50% of cytopathogenic effects of HIV) (HIV; [1]): 0.23 µg/mL

octyloxyphenyl β-D-galactopyranosyl-(1→4)-β-D-galactopyranosyl-(1→4)-β-D-glucopyranoside sulfate [Example 41]
CC50 (50% cytotoxic concentration) (MT-4 cells): > 1000 µg/mL
EC50 (50% effective concentration, prevention of 50% of cytopathogenic effects of HIV) (HIV; [1]): 1.12 µg/mL

p-heptyloxyphenyl β-D-glucopyranosyl-(1→3)-{β-D-glucopyranosyl (1→3)}3 -β-D-glucopyranoside sulfate [Example 36]
CC50 (50% cytotoxic concentration) (MT-4 cells): > 1000 µg/mL
EC50 (50% effective concentration, prevention of 50% of cytopathogenic effects of HIV) (HIV; [1]): 0.062 µg/mL

p-(1,1,3,3-tetramethylbutyl)phenyl β-D-galactopyranosyl-(1→4)-{β-D-galactopyranosyl-(1→4)}2 -β-D-glucopyranoside sulfate [Example 43]
CC50 (50% cytotoxic concentration) (MT-4 cells): > 1000 µg/mL
EC50 (50% effective concentration, prevention of 50% of cytopathogenic effects of HIV) (HIV; [1]): 0.04 µg/mL

octylphenyl β-D-galactopyranosyl-(1→4)-{β-D-galactopyranosyl-(1→4)}2 -β-D-glucopyranoside sulfate [Example 39]
CC50 (50% cytotoxic concentration) (MT-4 cells): > 1000 µg/mL
EC50 (50% effective concentration, prevention of 50% of cytopathogenic effects of HIV) (HIV; [1]): 0.82 µg/mL

p-(1,1,3,3-tetramethylbutyl)phenyl β-D-glucopyranosyl-(1→3)-{β-D-glucopyranosyl-(1→3)}m -β-D-glucopyranoside sulfate [Example 38]
CC50 (50% cytotoxic concentration) (MT-4 cells): > 1000 µg/mL
EC50 (50% effective concentration, prevention of 50% of cytopathogenic effects of HIV) (HIV; [1]): 0.020 µg/mL

Cc1cn([C@H]2C[C@H](N=[N+]=[N-])[C@@H](CO)O2)c(=O)[nH]c1=O [AZT, 3'-azido-2',3'-dideoxythymidine, reference compound]
CC50 (MT-4 cells; AZT, footnote: units are μM, read-out: CC50 (50% cytotoxic concentration)): 10.8 µM
SI (selectivity index, CC50/EC50) (HIV; CC50/EC50, MT-4 cells, HIV): 2700
EC50 (HIV; Human immunodeficiency virus 1, MT4, 120 h, AZT, footnote: units are μM, HIV-infected MT-4 cells, MOI 0.01, 5 days, read-out: EC50 (50% effective concentration)): 0.004 µM

octyloxyphenyl β-D-galactopyranosyl-(1→4)-{β-D-galactopyranosyl-(1→4)}2 -β-D-glucopyranoside sulfate [Example 40]
CC50 (50% cytotoxic concentration) (MT-4 cells): > 1000 µg/mL
EC50 (50% effective concentration, prevention of 50% of cytopathogenic effects of HIV) (HIV; [1]): 0.95 µg/mL

p-octylphenyl β-D-glucopyranosyl-(1→3)-{β-D-glucopyranosyl (1→3)}5 -β-D-glucopyranoside sulfate [Example 34]
CC50 (50% cytotoxic concentration) (MT-4 cells): > 1000 µg/mL
EC50 (50% effective concentration, prevention of 50% of cytopathogenic effects of HIV) (HIV; [1]): 0.31 µg/mL
